Format in all cases: biochemical
Test [1] concerns the target T1, catalytic domain of MMP-13 enzyme (Homo sapiens, UniProt P45452).
T1 construct: 50 nM stock solution of catalytic domain of MMP-13 enzyme; purchased Invitek (Berlin) 30100812
Briefly: Assay for determining MMP-13 inhibition (fluorescent substrate). Particulars: read-out: MMP-13 Activity (IC50 MMP-13), Group. The protocol:
Assay for Determining MMP-13 Inhibition
The typical assay for MMP-13 activity is carried out in assay buffer comprised of 50 mM Tris, pH 7.5, 150 mM NaCl, 5 mM CaCl2 and 0.05% Brij-35. Different concentrations of tested compounds are prepared in assay buffer in 50 μL aliquots. 10 μL of a 50 nM stock solution of catalytic domain of MMP-13 enzyme (produced by Alantos or commercially available from Invitek (Berlin), Cat.#30100812) is added to the compound solution. The mixture of enzyme and compound in assay buffer is thoroughly mixed and incubated for 10 min at room temperature. Upon the completion of incubation, the assay is started by addition of 40 μL of a 12.5 μM stock solution of MMP-13 fluorescent substrate (Calbiochem, Cat. No. 444235). The time-dependent increase in fluorescence is measured at the 320 nm excitation and 390 nm emission by automatic plate multireader. The IC50 values are calculated from the initial reaction rates.

Another test deals with T2, activated MMP-8 enzyme (Homo sapiens, UniProt P22894).
T2 construct: purchased Calbiochem 444229
Briefly: Assay for determining MMP-8 inhibition (fluorescent substrate). Particulars: read-out: MMP-8 Activity (IC50 MMP-8), Group. The protocol:
Assay for Determining MMP-8 Inhibition
The typical assay for MMP-8 activity is carried out in assay buffer comprised of 50 mM Tris, pH 7.5, 150 mM NaCl, 5 mM CaCl2 and 0.05% Brij-35. Different concentrations of tested compounds are prepared in assay buffer in 50 μL aliquots. 10 μL of a 50 nM stock solution of activated MMP-8 enzyme (Calbiochem, Cat. No. 444229) is added to the compound solution. The mixture of enzyme and compound in assay buffer is thoroughly mixed and incubated for 10 min at 37° C. Upon the completion of incubation, the assay is started by addition of 40 μL of a 10 μM stock solution of OmniMMP fluorescent substrate (Biomol, Cat. No. P-126). The time-dependent increase in fluorescence is measured at the 320 nm excitation and 390 nm emission by an automatic plate multireader at 37° C. The IC50 values are calculated from the initial reaction rates.

The target in test [2] is T3, catalytic domain of MMP-3 enzyme (Homo sapiens, UniProt P08254).
T3 construct: 100 nM stock solution of the catalytic domain of MMP-3 enzyme (Biomol, Cat. No. SE-1 09); purchased Biomol SE-1 09
Briefly: Assay for determining MMP-3 inhibition (fluorescent substrate). Particulars: read-out: MMP-3 Activity (IC50 MMP-3), Group. The protocol: Assay for Determining MMP-3 Inhibition
The typical assay for MMP-3 activity is carried out in assay buffer comprised of 50 mM MES, pH 6.0, 10 mM CaCl2 and 0.05% Brij-35. Different concentrations of tested compounds are prepared in assay buffer in 50 μL aliquots. 10 μL of a 100 nM stock solution of the catalytic domain of MMP-3 enzyme (Biomol, Cat. No. SE-1 09) is added to the compound solution. The mixture of enzyme and compound in assay buffer is thoroughly mixed and incubated for 10 min at room temperature. Upon the completion of incubation, the assay is started by addition of 40 μL of a 12.5 μM stock solution of NFF-3 fluorescent substrate (Calbiochem, Cat. No. 480455). The time-dependent increase in fluorescence is measured at the 330 nm excitation and 390 nm emission by an automatic plate multireader. The IC50 values are calculated from the initial reaction rates.

The structures appear in SMILES notation.

T3 sequence (P08254 100-272 limits assumed): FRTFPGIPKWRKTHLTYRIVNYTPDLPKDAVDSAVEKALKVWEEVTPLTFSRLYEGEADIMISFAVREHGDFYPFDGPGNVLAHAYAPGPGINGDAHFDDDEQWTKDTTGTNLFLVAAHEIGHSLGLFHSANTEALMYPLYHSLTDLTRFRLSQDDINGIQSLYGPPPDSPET
T2 sequence (P22894 101-467): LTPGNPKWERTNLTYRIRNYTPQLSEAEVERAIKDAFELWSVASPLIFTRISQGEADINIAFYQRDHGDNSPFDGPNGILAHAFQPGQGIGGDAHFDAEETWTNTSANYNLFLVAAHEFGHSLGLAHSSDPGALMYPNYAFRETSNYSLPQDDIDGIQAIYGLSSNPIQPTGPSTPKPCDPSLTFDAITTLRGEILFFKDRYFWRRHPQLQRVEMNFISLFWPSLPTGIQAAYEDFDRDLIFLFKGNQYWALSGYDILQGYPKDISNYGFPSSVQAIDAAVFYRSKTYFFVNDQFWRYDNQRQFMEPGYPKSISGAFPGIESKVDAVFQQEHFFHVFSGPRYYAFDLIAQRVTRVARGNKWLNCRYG

As for `O=C1COc2ccc(CNC(=O)c3nc4sc5c(c4c(=O)[nH]3)CCC3(C5)OCCO3)cc2N1` [1/32], the IC50 is below 100 nM in test [1], below 250 nM on activated MMP-8 enzyme and below 250 nM in test [2].

Consider `O=C(NCc1ccc2c(c1)-n1cnnc1CO2)c1nc2ccccc2c(=O)[nH]1` [1/18], for which the IC50 in test [1] is below 100 nM.

Turning to `CN1C(=O)COc2ccc(CNC(=O)c3nc4ccccc4c(=O)[nH]3)cc21` [1/8], the IC50 was 100 to 20000 nM in test [1] and 250 to 20000 nM on activated MMP-8 enzyme.

Take `Cn1c(=O)oc2ccc(CNC(=O)c3nc4ccccc4c(=O)[nH]3)cc21` [1/7]: the IC50 is below 100 nM in test [1] and 250 to 20000 nM at activated MMP-8 enzyme.

Regarding `Cc1sc2nc(C(=O)NCc3cc4c(cc3F)OCC(=O)N4)[nH]c(=O)c2c1C` [1/26], the results for the IC50 (in test [1]; on activated MMP-8 enzyme) were below 100 nM and 250 to 20000 nM, respectively.

In the case of `O=C1COc2ccc(CNC(=O)c3nc4c(c(=O)[nH]3)C3CCC4CC3)cc2N1` [Example 3], the IC50 in test [1] is below 100 nM; at activated MMP-8 enzyme, below 250 nM.

Consider `O=C(NCc1ccc2c(c1)NC(=S)CO2)c1nc2ccccc2c(=O)[nH]1` [1/16], for which the IC50 is below 100 nM in test [1] and 250 to 20000 nM on activated MMP-8 enzyme.

`CC(NC(=O)c1nc2ccccc2c(=O)[nH]1)c1ccc2c(c1)NC(=O)CO2` (stereo not drawn) [1/5]: the IC50 in test [1] lay in the range of 100 to 20000 nM.

On to `Cc1sc2nc(C(=O)NCc3cc(F)c4c(c3)NC(=O)CO4)[nH]c(=O)c2c1C` [1/12], for which the IC50 was below 100 nM in test [1] and below 250 nM on activated MMP-8 enzyme.

Regarding `CC1N=C(C(=O)NCc2ccc3c(c2)NC(=O)CO3)NC(=O)C1c1ccccc1` (stereo not drawn) [1/29], the IC50 in test [1] was below 100 nM; in test [2] it was 250 to 20000 nM.

Turning to `O=C1COc2ccc(CNC(=O)c3nc4sc5c(c4c(=O)[nH]3)CCC3(CCN(C(=O)OCc4ccccc4)CC3)C5)cc2N1` [Example 1], the IC50 in test [1] lay in the range of 100 to 20000 nM.

Turning to `O=C(NCc1ccc2c(c1)-n1c(noc1=O)CO2)c1nc2ccccc2c(=O)[nH]1` [1/30], in test [1], the IC50 lay in the range of 100 to 20000 nM.

Turning to `O=C1COc2c(F)cc(CNC(=O)c3nc4ccccc4c(=O)[nH]3)cc2N1` [1/10], in test [1], the IC50 was below 100 nM.

Turning to `O=C1COc2ccc(CNC(=O)c3nc4ccccc4c(=O)[nH]3)cc2N1` [1/4], the IC50 in test [1] was below 100 nM; on activated MMP-8 enzyme it was below 250 nM; in test [2], below 250 nM.

In the case of `Cc1sc2nc(C(=O)NCc3ccc4c(c3)NC(=S)CO4)[nH]c(=O)c2c1C` [1/17], the IC50 was below 100 nM in test [1] and below 250 nM on activated MMP-8 enzyme.

Take `O=C1COc2ccc(CNC(=O)c3nc4ccc(F)cc4c(=O)[nH]3)c(F)c2N1` [1/23]: in test [1], the IC50 lay within 100 to 20000 nM.

On to `Cc1sc2nc(C(=O)NCc3cnc4c(c3)NC(=O)CO4)[nH]c(=O)c2c1C` [1/15], for which the IC50 in test [1] was below 100 nM; at activated MMP-8 enzyme, 250 to 20000 nM.

As for `O=C1COc2ccc(CNC(=O)c3nc(-c4ccccc4)cc(=O)[nH]3)cc2N1` [1/1], in test [1], the IC50 fell in the range of 100 to 20000 nM.

Regarding `Cc1csc2nc(C(=O)NCc3ccc4c(c3)NC(=O)CO4)[nH]c(=O)c12` [1/9], the IC50 was below 100 nM in test [1], below 250 nM at activated MMP-8 enzyme and below 250 nM in test [2].

On to `CC1Oc2ccc(CNC(=O)c3nc4ccccc4c(=O)[nH]3)cc2NC1=O` (stereo not drawn) [1/6], for which the IC50 in test [1] is below 100 nM; on activated MMP-8 enzyme it was 250 to 20000 nM.

On to `O=C1COc2c(F)cc(CNC(=O)c3nc4ccc(F)cc4c(=O)[nH]3)cc2N1` [1/11], for which the IC50 in test [1] is below 100 nM.

`O=C1COc2c(F)c(F)cc(CNC(=O)c3nc4ccccc4c(=O)[nH]3)c2N1` [1/27]: the IC50 in test [1] lay within 100 to 20000 nM.

For the compound `O=C1COc2ncc(CNC(=O)c3nc4ccccc4c(=O)[nH]3)cc2N1` [1/13], the IC50 in test [1] was 100 to 20000 nM.

On to `Cc1sc2nc(C(=O)NCc3ccc4c(c3)-n3cnnc3CO4)[nH]c(=O)c2c1C` [1/19], for which the IC50 in test [1] was below 100 nM.

For `O=C1COc2ccc(CNC(=O)c3ncc(-c4ccc(F)cc4)c(=O)[nH]3)cc2N1` [1/33], in test [1], the IC50 is below 100 nM.

With `O=C1COc2cc(F)c(CNC(=O)c3nc4ccccc4c(=O)[nH]3)cc2N1` [1/25], the IC50 in test [1] was below 100 nM.

As for `Cc1sc2nc(C(=O)NCc3ccc4c(c3F)NC(=O)CO4)[nH]c(=O)c2c1C` [1/24], the IC50 in test [1] was 100 to 20000 nM.

Regarding `Cc1nc(C(=O)NCc2ccc3c(c2)NC(=O)CO3)[nH]c(=O)c1C` [1/2], the IC50 in test [1] was below 100 nM.

For the compound `Cc1ccc2nc(NC(=O)Cc3ccc4c(c3)NC(=O)CO4)[nH]c(=O)c2c1` [1/34], the IC50 in test [1] lay within 100 to 20000 nM.
